# Experimental data published in patent US5817651A, “3-arylcarbonyl-1-(C-attached-N-heteryl)-1H-indoles” (Sanofi, priority 1997, dated 1998).
# Counter-ions that a name gives are not always drawn. Like-named read-outs stand apart in the source and are kept apart here.
# Assays:
# Type in all cases: in vivo
# [1] = tested on: acetylcholine-induced abdominal constriction; experiment: acetylcholine-induced abdominal constriction test (ACH); settings: mice; for inhibition in vivo at 100 mg/kg / ED50: Mus musculus; for inhibition in vivo at 100 mg/kg: dose level 100, read-out: ACH percent inhibition at dose 100
# From the text: J. Pharmacol. Chemotherap. 32, 295 (1968); a modification of the anti-bradykinin test, which is also a primary analgesic screening procedure, described by Berkowitz et al., J. Pharmacol. Exptl. Therap. 177, 500-508 (1971), Blane et al., J. Pharm. Pharmacol. 19, 367-373 (1967), Botha et al., Eur. J. Pharmacol. 6, 312-321 (1969) and Deffenu et al., J. Pharm. Pharmacol. 18, 135 (1966); and the Randall-Selitto analgesic test described by Randall and Selitto, Arch. Int. Pharmacodyn., 111, 409-419 (1957).
# Data in the developing adjuvant arthritis (AA) and plasma fibronectin (FN) assays are expressed as percent inhibition, i.e. inhibition of non-injected paw inflammation (NIP) and injected paw (RPV) and lowering of plasma fibronectin, the asterisks * and ** indicating statistical significance at the p<0.01 and p<0.05 levels, respectively. […] Non-statistically significant results are recorded as "------ ". In the acetylcholine-induced abdominal constriction test, the test compounds were administered either as suspensions in gum tragacanth (GT) or as aqueous solutions prepared by addition of just sufficient dilute aqueous methanesulfonic acid (MS) or dilute aqueous lactic acid (LA) to dissolve the compound. The compounds are identified by the example number above where their preparations are described. All data in the anti-bradykinin, rat writhing and Randall-Selitto tests were obtained on oral administration.
# [2] = tested on: acetic acid-induced writhing; experiment: acetic acid-induced writhing assay in the rat (RW); settings: for ED50: Rattus norvegicus, po, oral administration
# Procedure: (§1) Data in the developing adjuvant arthritis (AA) and plasma fibronectin (FN) assays are expressed as percent inhibition, i.e. inhibition of non-injected paw inflammation (NIP) and injected paw (RPV) and lowering of plasma fibronectin, the asterisks * and ** indicating statistical significance at the p<0.01 and p<0.05 levels, respectively. Compounds are considered active at p<0.05 level. Non-statistically significant results are recorded as "------ ". In the acetylcholine-induced abdominal constriction test, the test compounds were administered either as suspensions in gum tragacanth (GT) or as aqueous solutions prepared by addition of just sufficient dilute aqueous methanesulfonic acid (MS) or dilute aqueous lactic acid (LA) to dissolve the compound. The compounds are identified by the example number above where their preparations are described. All data in the anti-bradykinin, rat writhing and Randall-Selitto tests were obtained on oral administration.
# [3] = tested on: adjuvant induced arthritis; experiment: developing adjuvant arthritis (AA) assay; set-up: key: Non-statistically significant results are recorded as "------ "; settings: arthritic rats; printed * = p<0.01, ** = p<0.05
# Procedure: Antirheumatic and anti-inflammatory activities of the compounds of the invention were determined using the developing adjuvant arthritis assay in rats and the plasma fibronectin assay in arthritic rats. The developing adjuvant arthritis assay was used in conjunction with the plasma fibronectin assay as a primary screening method in the evaluation of compounds for potential use as disease modifying anti-rheumatic drugs. The procedure used to induce arthritis in rats is a modification of the methods published by Pearson, J. Chron. Dis. 16, 863-874 (1973) and by Glenn et al., Amer. J. Vet. Res. 1180-1193 (1965). Adjuvant induced arthritis bears many of the traits of rheumatoid arthritis. It is a chronic, progressive, deforming arthritis of the peripheral joints, with a primary mononuclear cell response consisting of bone and joint space invasion by pannus. In order to detect disease modifying anti-rheumatic drug activity, drug treatment is started before the disease has become irrevocably established. Since such drugs are not designed to be administered prophylactically, drug treatment of adjuvant arthritis is initiated at a time when the disease is developing but is not yet irreversible. Animals develop significant systemic arthritic disease which can be measured by swelling of the non-injected rear paw (NIP) 15 to 20 days following an initial injection on day 1 of complete Freund's adjuvant into the right hindfoot paw.
# as §1
# [4] = Table 9, Examples, no route marked in the cell, read-out: ACH ED50
# [5] = Table 9, Examples, no route marked in the cell
structure (smiles),measurement,setting,value
Cc1c(C(=O)c2ccc([N+](=O)[O-])cc2)c2ccccc2n1CC1CCCN(C)C1 (stereo not drawn) [Example 2AN],inhibition in vivo at 100 mg/kg,[1]; Table 9,30%
"Cc1cc2ccccc2n1CCC1CCCCN1C (stereo not drawn) [Preparation 1Q, 2-methyl-1-[2-(1-methyl-2-piperidinyl)-ethyl]-1H-indole]",inhibition in vivo at 100 mg/kg,"[1]; Table 10, Prepn. No.",30%
COc1ccc(C(=O)c2c(C)n(C3CSCCN(C)C3)c3ccccc23)cc1 (stereo not drawn) [Example 3B],inhibition in vivo at 100 mg/kg,[1]; Table 9,60%
COc1ccc(C(=O)c2c(C)n(CC3CCN(C)C3)c3ccccc23)cc1 (stereo not drawn) [Example 2AI],ED50,[1]; [4],11 mg/kg
same,ACH ED50,[1]; [5],13 mg/kg
same,ED50,[2],4 mg/kg
CC(C1CCCNC1)n1cc(C(=O)c2ccccc2F)c2ccccc21 (stereo not drawn) [Example 4H],ACH ED50,[1]; [5],25 mg/kg
same,ED50,[2],4 mg/kg
CN1CCCCC(n2cc(C(=O)c3cccc4ccccc34)c3ccccc32)C1 (stereo not drawn) [Example 1R],inhibition in vivo at 100 mg/kg,[1]; Table 9,20%
CN1CCCC(Cn2cc(C(=O)c3ccccc3F)c3ccccc32)C1 (stereo not drawn) [Example 2AA],ED50,[1]; [4],65 mg/kg
CN1CCCCC(n2cc(C(=O)c3ccccc3F)c3ccccc32)C1 (stereo not drawn) [Example 2AD],inhibition in vivo at 100 mg/kg,[1]; Table 9,20%
CCN1CCCC(n2c(C)c(C(=O)c3ccc(OC)cc3)c3ccccc32)C1 (stereo not drawn) [Example 2AE],ED50,[1]; [4],26 mg/kg
same,RW percent inhibition at dose 30,"[2]; oral, dose level 30",15%
"Cc1cc2ccccc2n1CC1CN(C)CCO1 (racemic) [Preparation 1A, 1-[(4-methyl-2-morpholinyl)methyl]-2-methyl-1H-indole]",inhibition in vivo at 100 mg/kg,"[1]; Table 10, Prepn. No.",10%
CN1CCCC(Cn2cc(C(=O)c3ccccc3)c3ccccc32)C1 (stereo not drawn) [Example 1Q],ED50,[1]; [4],45 mg/kg
COc1ccc(C(=O)c2c(C)n(CC3CCCN(Cc4ccccc4)C3)c3ccccc23)cc1 (stereo not drawn) [Example 2T],ACH percent inhibition at dose 300,"[1]; Table 9, dose level 300",20%
same,NIP: percent inhibition of non-injected paw inflammation,[3],92%
same,RPV: percent inhibition of injected paw,[3],68%
COc1ccc(C(=O)c2c(C)n(C3CCNC3)c3ccccc23)cc1 (stereo not drawn) [Example 8B],ED50,[1]; [4],29 mg/kg
COc1ccc(C(=O)c2cn(CC3CCCN(C)C3)c3ccc(F)cc23)cc1 (stereo not drawn) [Example 1H],inhibition in vivo at 100 mg/kg,[1]; Table 9,20%
same,NIP: percent inhibition of non-injected paw inflammation,[3],92%
same,RPV: percent inhibition of injected paw,[3],63%
COc1ccc(C(=O)c2c(C)n(CC3CCCN3Cc3ccccc3)c3ccccc23)cc1 (stereo not drawn) [Example 1AG],inhibition in vivo at 100 mg/kg,[1]; Table 9,0%
CC(C1CCCNC1)n1cc(C(=O)c2ccccc2F)c2ccccc21 (stereo not drawn) [Example 4E],ED50,[1]; [4],43 mg/kg
COc1ccc(C(=O)c2c(C)n(C3CCN(Cc4ccccc4)C3)c3ccccc23)cc1 (stereo not drawn) [Example 1W],inhibition in vivo at 100 mg/kg,[1]; Table 9,35%
COc1ccc(C(=O)c2c(C)n(C3CCCN(C)C3)c3ccccc23)cc1 (stereo not drawn) [2AG(b)],ED50,[1]; [4],30 mg/kg
Cc1c(C(=O)c2ccccc2F)c2ccccc2n1C[C@@H]1CC[C@@H](C)N1C (relative stereo) [Example 1AD],ED50,[1]; [4],34 mg/kg
"Cc1cc2ccccc2n1CC1CCCN(C)C1.Cl (stereo not drawn) [Preparation 1P, 2-methyl-1-[(1-methyl-3-piperidinyl)methyl]-1H-indole hydrochloride]",ED50,"[1]; iv, Table 10, Prepn. No., i.v., read-out: ACH ED50 (i.v.)",9.7 mg/kg
same,ED50,"[1]; po, Table 10, Prepn. No., p.o., read-out: ACH ED50 (p.o.)",66 mg/kg
CCc1ccc(C(=O)c2c(C)n(CC3CCCN(C)C3)c3ccccc23)cc1 (stereo not drawn) [Example 2N],ED50,[1]; [4],46 mg/kg
COc1ccc(C(=O)c2c(C)n(CC3CN(C)CCS3)c3ccccc23)cc1 (stereo not drawn) [Example 3C],ED50,[1]; [4],30 mg/kg
"CCCN1CCCC(Cn2c(C)c(C(=O)c3ccc(OC)cc3)c3ccccc32)C1 (stereo not drawn) [Example 7, 2-methyl-3-(4-methoxybenzoyl)-1-[(1-propyl-3-piperidinyl)methyl]-1H-indolehydrochloride]",ED50,[1]; [4],18 mg/kg
Cc1c(C(=O)c2ccc(O)cc2)c2ccccc2n1CC1CN(C)CCO1 (stereo not drawn) [Example 1D],inhibition in vivo at 100 mg/kg,[1]; Table 9,10%
COc1ccc(C(=O)c2c(C(C)C)n(CC3CCCN(C)C3)c3ccc(F)cc23)cc1 (stereo not drawn) [Example 1S],ED50,[1]; [4],21 mg/kg
same,NIP: percent inhibition of non-injected paw inflammation,[3],73%
same,RPV: percent inhibition of injected paw,[3],36%
COc1ccc(C(=O)c2c(C)n(CC3CN(C(c4ccccc4)c4ccccc4)C3)c3ccccc23)cc1 [Example 2AL],inhibition in vivo at 100 mg/kg,[1]; Table 9,20%
Cc1c(C(=O)c2cccc(F)c2)c2ccccc2n1CC1CCCN(C)C1 (stereo not drawn) [Example 1O],ED50,[1]; [4],71 mg/kg
COc1ccc(C(=O)c2cn(CCC3CCCN3C)c3ccc(F)cc23)cc1 (stereo not drawn) [Example 2C],ED50,[1]; [4],49 mg/kg
same,NIP: percent inhibition of non-injected paw inflammation,[3],55%
same,RPV: percent inhibition of injected paw,[3],27%
CCN1CCCC1Cn1c(C)c(C(=O)c2ccc(OC)cc2)c2ccccc21 (stereo not drawn) [Example 2Y],ED50,[1]; [4],43 mg/kg
same,NIP: percent inhibition of non-injected paw inflammation,[3],46%
same,RPV: percent inhibition of injected paw,[3],15%
"CN1CCCC(Cn2ccc3cc(F)ccc32)C1 (stereo not drawn) [Preparation 1D, 1-[(1-methyl-3-piperidinyl)methyl]-5-fluoro-1H-indole]",ED50,"[1]; Table 10, Prepn. No. (intermediates of formula II), no route marked, read-out: ACH ED50",65 mg/kg
CN1CCCC(n2cc(C(=O)c3ccccc3F)c3ccccc32)C1 (stereo not drawn) [Example 4D],ACH percent inhibition at dose 10,"[1]; Table 9, dose level 10",65%
same,ACH percent inhibition at dose 30,"[1]; Table 9, dose level 30",50%
same,NIP: percent inhibition of non-injected paw inflammation,[3],80%
same,RPV: percent inhibition of injected paw,[3],--
"COc1ccc(C(=O)c2c(C)n(CC3COCCN3C)c3ccccc23)cc1 (stereo not drawn) [Example 10B, 2-methyl-3-(4-methoxybenzoyl)-1-[(4-methyl-3-morpholinyl)methyl]-1H-indole]",ED50,[1]; [4],29 mg/kg
COc1ccc(C(=O)c2c(C)n(C[C@@H]3CC[C@@H](C)N3Cc3ccccc3)c3ccccc23)cc1 (relative stereo) [Example 1AE],inhibition in vivo at 100 mg/kg,[1]; Table 9,30%
"COc1ccc(C(=O)c2c(C)n(CC3C[S+]([O-])CCN3C)c3ccccc23)cc1 (stereo not drawn) [Example 6B, 2-methyl-3-(4-methoxybenzoyl)-1-[(4-methyl-3-thiomorpholinyl)methyl]-1H-indole-S-oxide]",ED50,[1]; [4],5 mg/kg
"COc1ccc(C(=O)c2c(C)n(CCC3CCCN3C)c3ccc(F)cc23)cc1 (stereo not drawn) [Example 2A, 5-fluoro-2-methyl-1-[2-(1-methyl-2-pyrrolidinyl)ethyl]-3-(4-methoxybenzoyl)-1H-indole hydrochloride hemihydrate]",ED50,[1]; [4],32 mg/kg
same,NIP: percent inhibition of non-injected paw inflammation,[3],86%
same,RPV: percent inhibition of injected paw,[3],69%
COc1cccc(C(=O)c2c(C)n(CC3CCCN(C)C3)c3ccccc23)c1 (stereo not drawn) [Example 1T],ED50,[1]; [4],64 mg/kg
Cc1c(C(=O)c2ccc(Cl)cc2)c2ccccc2n1CC1CCCN(C)C1 (stereo not drawn) [Example 1L],ED50,[1]; [4],62 mg/kg
same,NIP: percent inhibition of non-injected paw inflammation,[3],83%
same,RPV: percent inhibition of injected paw,[3],60%
COc1ccc(C(=O)c2cn(CCC3CCCN3C)c3ccccc23)cc1 (stereo not drawn) [Example 2S],ED50,[1]; [4],50 mg/kg
same,NIP: percent inhibition of non-injected paw inflammation,[3],33%
same,RPV: percent inhibition of injected paw,[3],21%
COc1ccc(C(=O)c2c(C(C)C)n(CC3CCCN(C)C3)c3ccccc23)cc1 (stereo not drawn) [Example 1U],ED50,[1]; [4],22 mg/kg
COc1ccc(C(=O)c2c(C)n(C3CCN(C)CC3)c3ccccc23)cc1 [Example 1B],ED50,[1]; [4],69 mg/kg
same,NIP: percent inhibition of non-injected paw inflammation,[3],88%
same,RPV: percent inhibition of injected paw,[3],65%
